# Laboratory results from patent US20050220834A1 (priority 2004, published 2005).
# Test system: bipolaris sorokininan
# Experiment: Seed treatment: disease prevention and yield keeping on wheat
# Assay type: in vivo
# Conditions: treated seeds
# Procedure: Seeds treaed with FA whose weight amount to 0.2% seed by weight have disease prevention effect for bipolaris sorokininan and yield keeping effect. After the seeds were treated, the wheat developed well and occurrence of powdery mildew was less compared to blank. Yield keeping effect of mixture of FAn and triazolone was improved from 7.79% of single use of triazolone to 10.67%.
smiles,measurement,value
CC(C)(C)C(=O)C(Oc1ccc(Cl)cc1)n1cncn1 (stereo not shown) [triazolone],yield keeping effect (%),7.79%
